Measured values: US20240002361A1, “COMPOSITIONS AND METHODS FOR BLOCKING NEUROPILIN RECEPTOR 1 FOR THE TREATMENT OF PAIN AND PREVENTION OF VIRAL ENTRY” (Arizona Board of Regents on Behalf of the University of …, priority 2020, published 2024)
≈ marks a conversion by molar mass, not a printed value. Where “and” joins values, the source holds several entries; their conditions need not be identical. Equal entries are not always repeated.

Experiments:
in vitro = in vitro ADME; conditions: microsomes
Experimental: (§1) Additionally, an initial absorption, distribution, metabolism, and excretion (ADME) profile of the compound series was performed (Table 4).

physchem = format: physicochemical; conditions: for logD: pH 7.4; for solubility kinetic: pH 7.4, aqueous buffer, kinetic from dmso stock
Experimental: as §1

HepG2 cells = experiment: Cell proliferation and cytotoxicity in HepG2 cells (CellTiterGlo); format: cell-based; conditions: Homo sapiens, 48 h
Experimental: as §1

NRP-1/VEGF-A interaction [1] = molecular target: T1, NRP-1/VEGF-A interaction (Homo sapiens, UniProt O14786); experiment: ELISA-based NRP1-VEGF-A165 protein binding assay (concentration-response, IC50); conditions: 20 nM biotinylated hVEGF-A165 with 4 μg/ml heparin, n=3, read-out: Calculated IC50 values of inhibiting the NRP-1/VEGF-A interaction
T1 construct: coated with the extracellular domain of human NRP-1 (containing the a1a2 and the b1b2 regions); purchased Fisher, Hampton, NH 50-101-8343
T1 sequence (O14786 22-856 limits assumed): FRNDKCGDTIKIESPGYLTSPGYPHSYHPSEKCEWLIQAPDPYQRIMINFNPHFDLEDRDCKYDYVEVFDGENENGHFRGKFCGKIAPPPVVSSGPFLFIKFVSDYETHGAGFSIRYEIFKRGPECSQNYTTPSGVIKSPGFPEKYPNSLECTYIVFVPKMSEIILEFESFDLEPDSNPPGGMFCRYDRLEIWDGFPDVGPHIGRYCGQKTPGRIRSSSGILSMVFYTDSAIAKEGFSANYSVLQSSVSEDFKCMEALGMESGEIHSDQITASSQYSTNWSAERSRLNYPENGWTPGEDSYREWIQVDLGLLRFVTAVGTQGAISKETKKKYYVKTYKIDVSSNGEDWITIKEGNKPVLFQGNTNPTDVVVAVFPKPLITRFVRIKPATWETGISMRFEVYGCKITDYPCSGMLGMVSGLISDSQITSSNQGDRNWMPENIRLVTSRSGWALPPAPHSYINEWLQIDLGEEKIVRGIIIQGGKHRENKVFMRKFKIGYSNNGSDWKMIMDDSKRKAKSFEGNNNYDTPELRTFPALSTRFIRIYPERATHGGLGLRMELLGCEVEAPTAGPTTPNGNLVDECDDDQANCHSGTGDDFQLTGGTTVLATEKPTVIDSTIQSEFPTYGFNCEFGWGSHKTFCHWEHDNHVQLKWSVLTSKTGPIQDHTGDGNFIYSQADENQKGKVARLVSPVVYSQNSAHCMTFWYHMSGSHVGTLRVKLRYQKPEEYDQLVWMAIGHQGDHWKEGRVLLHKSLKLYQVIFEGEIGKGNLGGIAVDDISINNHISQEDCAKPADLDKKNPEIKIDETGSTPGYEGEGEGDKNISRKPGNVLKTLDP
Experimental: Plates (96-well, Nunc Maxisorp; Thermo Fisher Scientific, Waltham, MA, USA) were coated with human Neuropilin-1-Fc (200 ng per well, Cat #50-101-8343, Fisher, Hampton, NH) and incubated at 4° C. overnight. The following day, the plates were washed and blocked with 3% BSA in PBS to minimize non-specific adsorptive binding to the plates. EG00229 (Cat #6986, Tocris) or the indicated compounds were added at different concentrations and incubated for 30 min at room temperature prior to adding biotinylated human VEGF-A165 (Cat #BT10543-025, R&D systems) at 20 nM with 4 μg/ml of heparin. As a negative control, some wells received PBS containing 3% BSA and as a positive control only hVEGF-A165 was used. The plates were incubated at room temperature with shaking for 2 h. Next, the plates were washed with PBS 0.05% Tween to eliminate unbound protein. Bound biotinylated VEGF was detected by streptavidin-HRP (Cat #016-030-084, Jackson immunoResearch). Tetramethylbenzidine (Cat #DY999, R&D Systems, St. Louis, MO) was used as the colorimetric substrate. The optical density of each well was determined immediately, using a microplate reader (Multiskan Ascent; Thermo Fisher Scientific) set to 450 nm with a correction wavelength of 570 nm. Percentage of inhibition was calculated by the following formula: […]
where S is the optical density measured in the wells with the compounds, N is the optical density measured in the negative control wells and P is the optical density in the positive control wells. The IC50 was calculated using a non-linear regression function with GraphPad Prism Version 9. The data are presented as log (inhibitor) [M] versus normalized response-variable slope. Data are the means±S.E.M. of three independent experiments.
Finally, the ability of the compounds to interfere with the NRP-1NEGF-A interaction was evaluated using an enzyme linked immunosorbent assay (ELISA), as previously described (Moutal, et al., Pain 2021, 12(1), 243-252). Plates were coated with the extracellular domain of human NRP-1 (containing the a1a2 and the b1b2 regions) and the compounds were added to disrupt the NRP-1NEGF-A interaction. The biotinylated human VEGF-A used in the experiments described above (Moutal, et al., Pain 2021, 12(1), 243-252) was discontinued. For the instant studies, biotinylated hVEGF-A (Cat #BT10543-025, R&D systems) was used. Because of that, the known NRP-1 antagonist EG00229 and compound 4 from the above series of inhibitors (Moutal, et al., Pain 2021, 12(1), 243-252) were also tested in the instant studies.

NRP-1/VEGF-A interaction [2] = molecular target: T1, NRP-1/VEGF-A interaction; experiment: ELISA-based NRP1-VEGF-A165 protein binding assay (single concentration); conditions: compounds 12.5 μM (Spike S1 100 nM), biotinylated VEGF-A165 10 nM; ± standard error of the mean, n = 11

Row | SMILES | half-life (in vitro; human) [min] | half-life (in vitro; mouse) [min] | half-life (in vitro; rat) [min] | logD (physchem) | solubility kinetic (physchem) [µM] | IC50 (HepG2 cells) [µM] | IC50 (NRP-1/VEGF-A interaction [1]) | Rel % inhibition (NRP-1/VEGF-A interaction [2]) [%]
1 | COc1cccc(-c2cc(=O)[nH]c(Nc3ccccc3)n2)n1 [Compound 1u, 2-anilino-4-(6-methoxy-2-pyridyl)-1H-pyrimidin-6-one] | 18.9 | 9.6 | 3.9 | 3.51 | 10.4 (≈ 3.06 µg/mL) | > 30 | 369 µM | –
2 | COc1cccc(-c2cc(Nc3ccccc3)[nH]c(=O)n2)c1 [Compound 1b-iso, 6-anilino-4-(3-methoxyphenyl)-1H-pyrimidin-2-one] | 102 | 22 | 4.4 | 2.78 | 4.7 (≈ 1.38 µg/mL) | > 30 | 105 µM | –
3 | COc1ccc(C)c(-c2cc(=O)[nH]c(Nc3ccccc3)n2)c1 [Compound 1v, 2-anilino-4-(5-methoxy-2-methyl-phenyl)-1H-pyrimidin-6-one] | > 120 | > 120 | 4.7 | 2.91 | 8 (≈ 2.46 µg/mL) | > 30 | – | –
4 | COc1cc(-c2cc(=O)[nH]c(Nc3ccccc3)n2)ccn1 [Compound 1s, 2-anilino-4-(2-methoxy-4-pyridyl)-1H-pyrimidin-6-one] | 16.6 | 13.6 | 9.4 | 3.15 | 11.5 (≈ 3.38 µg/mL) | > 30 | 1030 µM | –
5 | COc1cccc(-c2cc(=O)[nH]c(Nc3c[nH]c(C(=O)O)c3)n2)c1 [1g′-iso, 4-[[4-(3-methoxyphenyl)-6-oxo-1H-pyrimidin-2-yl]amino]-1H-pyrrole-2-carboxylic acid] | > 120 | > 120 | > 120 | -0.38 | > 200 | > 30 | 32 µM | –
6 | CC(C)Cc1cc(C(=O)NCC2CCOC2)nc(=O)[nH]1 (centres unmarked) [Compound 2] | – | – | – | – | – | – | – | 59 ± 11
7 | O=c1cc(Nc2cccc(O)c2)[nH]c(=O)[nH]1 [Compound 9c, 6-(3-hydroxyanilino)-1H-pyrimidine-2,4-dione] | > 120 | > 120 | > 120 | 0.38 | > 200 | > 30 | 469 µM | –
8 | O=C(O)Cc1cnc(-c2cccnc2)[nH]c1=O [Compound 11] | – | – | – | – | – | – | – | 43 ± 16
9 | CC(C)Cc1cc(C(=O)NCCO)nc(=O)[nH]1 [Compound 2a, N-(2-hydroxyethyl)-6-isobutyl-2-oxo-1H-pyrimidine-4-carboxamide] | > 120 | > 120 | > 120 | 0.02 | > 200 | > 30 | ≤ 32 µM and 1.8 µM | –
10 | COc1cccc(-c2cc(=O)[nH]c(Nc3cc[nH]n3)n2)c1 [Compound 1t, 4-(3-methoxyphenyl)-2-(1H-pyrazol-3-ylamino)-1H-pyrimidin-6-one] | 64.5 | 4.5 | 12.7 | 2.67 | 48.7 (≈ 13.8 µg/mL) | > 30 | 128 µM | –
11 | O=c1cnnc(Nc2ccccc2O)[nH]1 [Compound 8] | – | – | – | – | – | – | – | 24 ± 16
12 | COc1cccc(-c2cc(=O)[nH]c(Nc3ccnc(N)c3)n2)c1 [Compound 1a, 2-[(2-amino-4-pyridyl)amino]-4-(3-methoxyphenyl)-1H-pyrimidin-6-one] | > 120 | 29.3 | 3.8 | 1.64 | 184 (≈ 56.9 µg/mL) | > 30 | 214 µM | –
13 | Cc1cc(CN(C)Cc2cc(=O)[nH]c(=O)[nH]2)no1 [Compound 9] | – | – | – | – | – | – | – | 43 ± 8
14 | COc1cccc(-c2cc(=O)[nH]c(Nc3ccccc3)n2)c1 [Compound 1] | – | – | – | – | – | – | – | 56 ± 7
15 | COc1cccc(-c2cc(=O)[nH]c(Nc3cccc(O)c3)n2)c1 [Compound 1c, 2-(3-hydroxyanilino)-4-(3-methoxyphenyl)-1H-pyrimidin-6-one] | > 120 | 71.7 | 4.4 | 2.49 | 14.2 (≈ 4.39 µg/mL) | > 30 | 23.1 µM | –
16 | COc1cc(-c2cc(=O)[nH]c(Nc3ccc(Cl)c(O)c3)n2)ccn1 [Compound 1d, 2-(4-chloro-3-hydroxy-anilino)-4-(2-methoxy-4-pyridyl)-1H-pyrimidin-6-one] | 28.4 | 59.7 | 14.1 | 3.15 | 19.4 (≈ 6.69 µg/mL) | > 30 | 134 µM | –
17 | COc1cccc(-c2nc(Nc3c[nH]c(C(=O)O)c3)cc(=O)[nH]2)c1 [1g′, 4-[[2-(3-methoxyphenyl)-6-oxo-1H-pyrimidin-4-yl]amino]-1H-pyrrole-2-carboxylic acid] | > 120 | > 120 | > 120 | -0.62 | > 200 | > 30 | 28.2 µM | –
18 | COc1cccc(-c2nc(Nc3ccccc3)cc(=O)[nH]2)c1 [Compound 1b, 4-anilino-2-(3-methoxyphenyl)-1H-pyrimidin-6-one] | 14.8 | 9.4 | 8.3 | 3.78 | 3.5 (≈ 1.03 µg/mL) | > 30 | 112 µM | –
